Measurements: patent US12312328B2, “Pyrazoline dihydroquinolones, pharmaceutical compositions, and uses” (Emory University, priority 2013, dated 2025)

Experiments:
[1] = Plasma stability, rat; format: in vitro ADME; conditions: two-hour time-course
Method: (§1) Three analogs, (58) 997-33, (26)997-23 and (64) 997-57 were evaluated for plasma stability as well as aqueous solubility. […] The aqueous solubility of compounds (26)997-23 and (58) 997-33 was evaluated in oocyte recording buffer using nephelometry. […] In order to assess the potential BBB penetration, compounds (26)997-23 and (64)997-57 were selected for evaluation in the MDR1-MDCK permeability assay (FIG. 19). […] The same compounds were also evaluated for metabolic stability using human liver microsomes.

[2] = Aqueous solubility in oocyte recording buffer by nephelometry; format: physicochemical
Method: as §1

[3] = target: T1, 5-HT6 (Homo sapiens, UniProt P50406); assay: NIMH PDSP Ki determination, 5-HT6; format: binding
T1 construct: NIMH PDSP (screening programme)
T1 sequence (P50406 whole entry, species assumed): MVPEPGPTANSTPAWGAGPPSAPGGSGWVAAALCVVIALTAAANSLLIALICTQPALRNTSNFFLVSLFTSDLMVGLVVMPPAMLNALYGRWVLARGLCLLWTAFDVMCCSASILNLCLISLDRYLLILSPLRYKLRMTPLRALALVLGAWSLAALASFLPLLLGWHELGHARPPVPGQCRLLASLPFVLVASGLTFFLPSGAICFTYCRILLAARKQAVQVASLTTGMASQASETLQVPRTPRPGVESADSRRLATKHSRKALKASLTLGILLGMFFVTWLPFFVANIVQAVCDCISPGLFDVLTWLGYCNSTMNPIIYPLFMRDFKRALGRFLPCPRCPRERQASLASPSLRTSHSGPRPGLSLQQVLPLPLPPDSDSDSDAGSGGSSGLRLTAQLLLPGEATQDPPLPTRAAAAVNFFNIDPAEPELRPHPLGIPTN
Method: (§2) The actions of these two compounds at 5 μM on were tested 42 different ion channels, G-protein coupled receptors, and transporters via the National Institutes of Mental Health (NIMH) psychoactive drug screening program (PDSP).

[4] = Plasma stability, mouse; format: in vitro ADME; conditions: two-hour time-course
Method: as §1

[5] = Plasma stability, human; format: in vitro ADME; conditions: two-hour time-course
Method: as §1

[6] = tested on: GluN2D receptor mutants Q801Y, L705F and A752V; assay: Inhibition of mutant GluN2D receptors (Q801Y, L705F and A752V); format: cell-based; conditions: racemic mixture, A752V versus wild type
Method: Mutations to the wild type GluN2D receptor (Q801Y, L705F and A752V) were described to decrease sensitivity of the GluN2D receptor to blockade by either DQP-1105 and/or QNZ-46 in the membrane proximal region of the bilobed ligand binding domain encoded by the S2 region of the polypeptide chain were evaluated. See Acker et al. and Hansen & Traynelis, J Neurosci, 2011, 31, 3650-3661.

[7] = target: T2, H2 (Homo sapiens, UniProt P25021); assay: NIMH PDSP Ki determination, H2; format: binding
T2 construct: NIMH PDSP (screening programme)
T2 sequence (P25021 whole entry): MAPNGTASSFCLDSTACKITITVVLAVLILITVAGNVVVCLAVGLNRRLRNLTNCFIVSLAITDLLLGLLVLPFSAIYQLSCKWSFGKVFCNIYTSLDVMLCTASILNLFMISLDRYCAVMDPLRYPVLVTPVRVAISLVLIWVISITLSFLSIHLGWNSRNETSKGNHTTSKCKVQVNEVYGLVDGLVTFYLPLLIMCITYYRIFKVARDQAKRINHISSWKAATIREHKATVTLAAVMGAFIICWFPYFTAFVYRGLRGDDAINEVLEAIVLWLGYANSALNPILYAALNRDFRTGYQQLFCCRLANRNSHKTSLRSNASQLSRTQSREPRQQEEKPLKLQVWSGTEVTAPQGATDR
Method: as §2

[8] = Human liver microsomal stability; format: in vitro ADME; conditions: 60 minute assay
Method: Human liver microsomes were obtained from XenoTech. The reaction mixture was prepared with 0.5 mg/mL human liver microsomes, 100 mM potassium phosphate (pH 7.4), 5 mM magnesium chloride, 1 μM test compound. The reaction mixture was incubated in a shaking water bath at 37° C. for 3 minutes prior to the addition of NADPH (1 mM). Testosterone was run simultaneously in a separate vessel as a control. 100 μl aliquots were taken at 0, 10, 20, 30 and 60 minutes for both test compound and testosterone. The aliquots were combined immediately with 400 μl of ice cold 50/50 ACN/dH2O containing 0.1% formic acid and internal standard to terminate the reaction. The samples were then mixed and centrifuged to precipitate microsomal proteins. All samples were assayed by LC-MS/MS using electrospray ionization and multiple reaction monitoring and the peak area responses to internal standard of the compounds at each time point was compared to the peak area response at time 0 to determine the percent compound remaining. The human liver microsomal stability assays were performed by Absorption Systems.

[9] = tested on: 42 different ion channels, G-protein coupled receptors, and transporters; assay: NIMH PDSP primary binding assay; conditions: 5 μM compound
Method: as §2

[10] = target: T3, kappa-opioid (Homo sapiens, UniProt P41145); assay: NIMH PDSP Ki determination, kappa-opioid; format: binding
T3 construct: NIMH PDSP (screening programme)
T3 sequence (P41145 whole entry): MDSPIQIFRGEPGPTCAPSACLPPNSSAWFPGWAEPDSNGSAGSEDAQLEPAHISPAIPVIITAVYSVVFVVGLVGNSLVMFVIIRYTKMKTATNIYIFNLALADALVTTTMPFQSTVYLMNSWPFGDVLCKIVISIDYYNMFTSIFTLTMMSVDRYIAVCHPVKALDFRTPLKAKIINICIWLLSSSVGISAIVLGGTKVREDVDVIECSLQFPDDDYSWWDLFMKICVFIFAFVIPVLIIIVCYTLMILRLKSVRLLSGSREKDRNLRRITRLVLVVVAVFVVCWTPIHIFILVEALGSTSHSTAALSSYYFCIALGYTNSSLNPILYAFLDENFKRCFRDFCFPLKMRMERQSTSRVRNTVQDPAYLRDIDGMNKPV
Method: as §2

[11] = tested on: MDR1-MDCK cell monolayers; assay: MDR1-MDCK permeability assay; format: in vitro ADME; conditions: MDR1-MDCK, 5 μM, 120 minutes
Method: The Papp and efflux ratio were calculated as described in the Methods. […] See Wang et al., International Journal of Pharmaceutics, 2005, 288, 349-359.
Cell monolayers were grown to confluence on collagen-coated, microporous, polycarbonate membranes in 12-well Costar Transwell® plates. The permeability assay buffer was Hanks Balanced Salt Solution containing 10 mM HEPES and 15 mM glucose at pH 7.4. The buffer in the receiver chamber also contained 1% bovine serum albumin. The dosing solution concentration in the assay buffer was 5 μM for each compound tested. The cell monolayers were dosed on the apical side (A-to-B) or basolateral side (B-to-A) and incubated at 37° C. with 5% CO2 in a humidified incubator. Samples were taken from the donor and receiver chambers at 120 minutes. Each determination was performed in duplicate. The co-dosed lucifer yellow flux was also measured for each monolayer to ensure no damage was inflicted to the cell monolayers during the flux period. All samples were assayed by LC-MS/MS using electrospray ionization. The apparent permeability (Papp) and percent recovery were calculated as follows. […] Human Liver Microsomal Stability

[12] = target: T4, 5-HT1E (Homo sapiens, UniProt P28566); assay: NIMH PDSP Ki determination, 5-HT1E; format: binding
T4 construct: NIMH PDSP (screening programme)
T4 sequence (P28566 whole entry, species assumed): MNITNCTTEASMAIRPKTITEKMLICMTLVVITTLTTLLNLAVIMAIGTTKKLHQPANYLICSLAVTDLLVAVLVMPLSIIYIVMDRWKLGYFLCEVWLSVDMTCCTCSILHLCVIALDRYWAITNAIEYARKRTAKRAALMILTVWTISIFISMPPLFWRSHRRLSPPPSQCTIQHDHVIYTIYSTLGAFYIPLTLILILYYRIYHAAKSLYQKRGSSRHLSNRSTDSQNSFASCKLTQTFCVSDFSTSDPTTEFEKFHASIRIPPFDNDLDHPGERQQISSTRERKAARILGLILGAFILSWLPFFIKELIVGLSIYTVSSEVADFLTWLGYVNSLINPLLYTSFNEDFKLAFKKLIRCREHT
Method: as §2

[13] = target: T5, mu-opioid (Homo sapiens, UniProt P35372); assay: NIMH PDSP Ki determination, mu-opioid; format: binding
T5 construct: NIMH PDSP (screening programme)
T5 sequence (P35372 whole entry): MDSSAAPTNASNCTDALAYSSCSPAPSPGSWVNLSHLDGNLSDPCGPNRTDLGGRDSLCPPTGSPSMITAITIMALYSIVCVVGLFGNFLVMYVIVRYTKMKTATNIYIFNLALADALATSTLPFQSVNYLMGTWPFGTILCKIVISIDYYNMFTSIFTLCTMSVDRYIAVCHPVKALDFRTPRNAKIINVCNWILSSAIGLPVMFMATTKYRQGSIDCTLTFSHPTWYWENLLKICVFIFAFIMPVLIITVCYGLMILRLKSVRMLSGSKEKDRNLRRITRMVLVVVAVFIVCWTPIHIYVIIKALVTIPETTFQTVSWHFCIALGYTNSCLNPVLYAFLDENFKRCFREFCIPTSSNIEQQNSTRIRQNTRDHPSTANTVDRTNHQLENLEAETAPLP
Method: as §2

[14] = target: GluN1/GluN2D (Rattus norvegicus, UniProt Q62645); assay: Inhibition of GluN1/GluN2D responses: dependence on agonist concentration and on voltage; format: cell-based; conditions: 1 μM compound
Sequence of GluN1/GluN2D (Q62645 28-1323, other chains not shown): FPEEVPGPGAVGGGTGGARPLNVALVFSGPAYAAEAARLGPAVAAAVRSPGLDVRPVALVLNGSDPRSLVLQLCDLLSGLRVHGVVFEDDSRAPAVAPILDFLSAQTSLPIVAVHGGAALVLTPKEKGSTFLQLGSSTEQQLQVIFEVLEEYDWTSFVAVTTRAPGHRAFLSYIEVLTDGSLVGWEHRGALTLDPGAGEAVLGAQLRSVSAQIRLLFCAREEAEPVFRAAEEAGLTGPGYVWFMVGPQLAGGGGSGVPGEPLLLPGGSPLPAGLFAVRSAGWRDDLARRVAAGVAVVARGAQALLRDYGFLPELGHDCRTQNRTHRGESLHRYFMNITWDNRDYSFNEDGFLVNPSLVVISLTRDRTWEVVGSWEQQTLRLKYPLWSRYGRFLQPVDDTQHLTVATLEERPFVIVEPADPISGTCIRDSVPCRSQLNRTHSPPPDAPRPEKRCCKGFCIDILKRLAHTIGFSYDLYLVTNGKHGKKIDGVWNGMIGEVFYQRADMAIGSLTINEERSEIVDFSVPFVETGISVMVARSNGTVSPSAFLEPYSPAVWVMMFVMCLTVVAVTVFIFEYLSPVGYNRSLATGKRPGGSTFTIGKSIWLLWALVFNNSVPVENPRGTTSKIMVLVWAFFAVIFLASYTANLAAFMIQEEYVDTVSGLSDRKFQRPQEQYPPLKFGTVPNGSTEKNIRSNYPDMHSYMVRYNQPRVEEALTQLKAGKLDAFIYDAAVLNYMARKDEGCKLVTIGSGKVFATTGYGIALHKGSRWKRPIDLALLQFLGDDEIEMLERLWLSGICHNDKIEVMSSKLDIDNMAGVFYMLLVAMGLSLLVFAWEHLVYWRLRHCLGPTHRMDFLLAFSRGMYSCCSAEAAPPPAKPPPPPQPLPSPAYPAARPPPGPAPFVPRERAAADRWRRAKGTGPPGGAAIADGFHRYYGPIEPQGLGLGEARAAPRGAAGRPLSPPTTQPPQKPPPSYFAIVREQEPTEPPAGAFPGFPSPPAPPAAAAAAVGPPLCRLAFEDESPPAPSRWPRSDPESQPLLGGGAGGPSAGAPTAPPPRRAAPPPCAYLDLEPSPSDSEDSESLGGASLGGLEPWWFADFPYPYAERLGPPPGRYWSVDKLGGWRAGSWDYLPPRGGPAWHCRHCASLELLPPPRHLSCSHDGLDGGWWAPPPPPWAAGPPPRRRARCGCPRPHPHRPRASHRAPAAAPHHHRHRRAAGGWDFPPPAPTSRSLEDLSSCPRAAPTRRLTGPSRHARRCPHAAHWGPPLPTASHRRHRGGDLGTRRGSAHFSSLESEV
Description: Although it is not intended that embodiments of this disclosure be limited by any mechanism, Acker et al. report a mechanism for noncompetitive inhibition by GluN2C/D N-methyl-d-aspartate receptor subunit-selective modulators. Molecular Pharmacology 2011, 80, 782-795.

[15] = target: GluN1/GluN2D receptors (Rattus norvegicus, UniProt P35439+Q62645); assay: Whole-cell patch clamp recordings of GluN1/GluN2D receptors expressed in HEK293 cells; format: cell-based
Sequence of GluN1/GluN2D receptors (Q62645 28-1323, other chains not shown): as above
Method: The time course of recovery from inhibition could also be well described by a single exponential function, and the kOFF was determined by the y-intercept in the linear regression relationship between the reciprocal of the tau describing the onset of inhibition and the drug concentration.

Row | SMILES | plasma stability [1] | solubility [2] [µM] | Ki [3] [µM] | plasma stability [4] | plasma stability [5] | effect of GluN2D mutations on degree of inhibition [6] | Ki [7] [µM] | degradation in human liver microsomes, in words [8] | effect on receptors and transporters in primary binding assay [9] | Ki [10] [µM] | Papp A-B [11] [×10⁻⁶ cm/s] | Ki [12] [µM] | Ki [13] [µM] | GluN1/GluN2D response remaining ([14]; 30 μM glutamate and glycine, n=6) | GluN1/GluN2D response remaining ([14]; 3 mM glutamate and glycine, n=6) | GluN1/GluN2D response remaining ([14]; +30 mV, n=8) | GluN1/GluN2D response remaining ([14]; −40 mV, n=8) | IC50 ([15]; HEK293 cells, n=4, read-out: IC50 for inhibition of the response under whole-cell voltage clamp) [µM] | Kd ([15]; calculated from kOFF and kON, read-out: dissociation constant KD) [µM]
1 | O=C(O)CCC(=O)N1N=C(c2c(-c3ccc(Cl)cc3)c3ccccc3[nH]c2=O)CC1c1ccc(Cl)cc1 (racemic) [Compound 997-23, 4-(5-(4-Chlorophenyl)-3-(4-(4-chlorophenyl)-2-oxo-1,2-dihydroquinolin-3-yl)-4,5-dihydro-1H-pyrazol-1-yl)-4-oxobutanoic acid] | minimal degradation | > 80 | > 10 | minimal degradation | minimal degradation | significantly reduced the degree of inhibition | > 10 | minimal degradation | minimal effect | > 10 | 0.47 |  |  |  |  |  |  |  | 
2 | O=C(O)/C=C/C(=O)N1N=C(c2c(-c3ccc(Br)cc3)c3ccccc3[nH]c2=O)CC1c1ccc(Cl)cc1 (racemic) [Compound 997-33, (E)-4-(3-(4-(4-Bromophenyl)-2-oxo-1,2-dihydroquinolin-3-yl)-5-(4-chlorophenyl)-4,5-dihydro-1H-pyrazol-1-yl)-4-oxobut-2-enoic acid] | minimal degradation | > 80 | > 10 | minimal degradation | minimal degradation |  |  |  | minimal effect | > 10 |  | > 10 | > 10 | 4.1 ± 0.58 % of control | 3.1 ± 0.50 % of control | 4.8+1.2 % of control | 4.9 ± 1.3 % of control | 0.99 | 0.99
